Tested on: breast cancer cells (MCF7 cells)
Assay: MTT cytotoxicity assay, breast cancer cells
Type: cell-based
Conditions: Homo sapiens, cell line not named in the sentence (FIG. 9: MCF7 and 184A1)
Protocol: Certain compounds of the invention were tested in both an MTT cytotoxicity assay and clonogenic cytotoxicity assay against breast cancer cells (MCF7 cells) and normal breast tissue cells (184A1 cells) to determine the cytotoxic effect of such cells as a function of concentration.
Specifically, the compounds tested included: N-(6-(hydroxyamino)-6-oxohexyl)-3-methyl-1H-indole-2-carboxamide (SP-1-161); -hydroxy-N^6-(2-(2-methyl-1H-indol-3-yl)ethyl)octanediamide (SP-1-163); (S)—N-(6-(hydroxyamino)-6-oxohexyl)-1-tosylindoline-2-carboxamide (SP-1-169); and (S)-1-((5-(dimethylamino)naphthalene-1-yl)sulfonyl)-N-(6-(hydroxyamino)-6-oxoheyl)indoline-carboxamide (SP-1-171).

Q: With Cc1c(C(=O)NCCCCCC(=O)NO)[nH]c2ccccc12 [SP-1-161, N-(6-(hydroxyamino)-6-oxohexyl)-3-methyl-1H-indole-2-carboxamide] as the compound, how does the IC50 read?
A: 416 nM

Reference: US10745352B2, “Dual function molecules for histone deacetylase inhibition and ataxia telangiectasia mutated activation and methods of use thereof” (Shuttle Pharmaceuticals, Inc., priority 2015, dated 2020)
